Among the data in patent US20230286968A1, “ARYLOXAZOLO SPIRAL RING DERIVATIVES FOR THE TREATMENT AND PROPHYLAXIS OF HEPATITIS B VIRUS INFECTION” (Hoffmann-La Roche Inc., priority 2020, published 2023) are CC50 and IC50 values, retold here.

A short description of data set [1]: Cytotoxicity in PHH natural infection assay (Cell Counting Kit-8). It is filed as cell-based. As to conditions: HBV-infected primary human hepatocytes, CCK8. The method in brief: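 HBV-infected primary human hepatocytes (200 GE/cell, 4% PEG8000, 24 h), sandwich-cultured 72 h, then given compound-containing medium twice at 72 h intervals. Cytotoxicity read by CCK-8 at end of treatment.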

A further data set deals with HBeAg. In words: PHH natural infection assay, HBeAg (alphalisa). It is filed as cell-based, HBV. Particulars: Hepatitis B virus, Hepatocyte, read-out: HBeAg IC50, HBV-infected primary human hepatocytes, supernatant, alphalisa. The method in brief:
(§1)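 Cryopreserved PHH plated 24 h, infected with HBV at 200 GE/cell plus 4% PEG8000 for 24 h, then sandwich-cultured 72 h with 0.25 mg/mL matrix gel. Compounds at varied concentrations applied twice at 72-h intervals. Supernatant HBsAg and HBeAg measured by AlphaLISA with specific antibodies.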
For orientation: Alpha assays give light when donor and acceptor beads are brought close together.

The test system of another data set is HBsAg. The data set can be described thus: PHH natural infection assay, HBsAg (alphalisa). It counts as cell-based, HBV. Particulars: Hepatitis B virus, Hepatocyte, read-out: HBsAg IC50, HBV-infected primary human hepatocytes, supernatant, alphalisa. The method, boiled down:
as §1

In general, CC50 refers to the concentration at which the toxic effect on the cells reaches its halfway point. Low readings indicate harm at low concentration, high ones better tolerance by the cells. As usually defined, the IC50 is the midpoint of a concentration-inhibition curve.

On to `CS(=N)(=O)c1cc(C(=O)NC2CC3(C2)CC(c2nc4cc(Cl)ccc4o2)C3)ccn1` (stereo not drawn) [Example 89, N-[6-(5-chloro-1,3-benzoxazol-2-yl)spiro[3.3]heptan-2-yl]-2-(methylsulfonimidoyl)pyridine-4-carboxamide], for which the CC50 at 144 h in data set [1] is over 100 µM. For the same compound, the IC50 in the data set with HBeAg was determined as 0.86 µM; with HBsAg, 2.45 µM.

`CS(=O)(=O)c1cc(C(=O)NC2CC3(C2)CC(c2nc4cc(Cl)ccc4o2)C3)c(Cl)cn1` (stereo not drawn) [Example 90, 5-Chloro-N-[6-(5-chloro-1,3-benzoxazol-2-yl)spiro[3.3]heptan-2-yl]-2-methylsulfonyl-pyridine-4-carboxamide] displayed a cytotoxic concentration (CC50) at 144 h in data set [1] of over 10 µM. The IC50 worked out at 2.26 µM in the data set with HBeAg and 2.99 µM in the data set on HBsAg.

`O=C(NC1CC2(C1)CC(c1nc3cc(Cl)ccc3o1)C2)c1ccnc(N2CCS(=O)(=O)CC2)c1` (stereo not drawn) [Example 91, N-[6-(5-chloro-1,3-benzoxazol-2-yl)spiro[3.3]heptan-2-yl]-2-(1,1-dioxo-1,4-thiazinan-4-yl)pyridine-4-carboxamide]: the CC50 at 144 h in data set [1] was over 10 µM. In addition, the IC50 was determined as 0.95 µM with HBeAg and 1.1 µM with HBsAg.

`CN(C(=O)c1ccnc(S(C)(=O)=O)c1)C1CC2(CC(c3nc4cc(Cl)ccc4o3)C2)C1` (stereo not drawn) [Example 92, N-[6-(5-chloro-1,3-benzoxazol-2-yl)spiro[3.3]heptan-2-yl]-N-methyl-2-methylsulfonyl-pyridine-4-carboxamide] yielded a CC50 at 144 h in data set [1] of over 10 µM. Moreover, the IC50 worked out at 2.02 µM in the data set with HBeAg and 3.05 µM in the data set with HBsAg.

`CCS(=O)(=O)c1cc(C(=O)N(C)C2CC3(CC(c4nc5cc(Cl)ccc5o4)C3)C2)ccn1` (stereo not drawn) [Example 93, N-[6-(5-chloro-1,3-benzoxazol-2-yl)spiro[3.3]heptan-2-yl]-2-ethylsulfonyl-N-methyl-pyridine-4-carboxamide] gave a CC50 at 144 h in data set [1] of over 10 µM. For the same compound, the IC50 with HBeAg turned out to be 2.21 µM; in the data set with HBsAg, 3.08 µM.

In data set [1], `N=C(NO)c1cc(C(=O)NC2CC3(C2)CC(c2nc4cc(Cl)ccc4o2)C3)ccn1` (stereo not drawn) [Example 95, N-[6-(5-chloro-1,3-benzoxazol-2-yl)spiro[3.3]heptan-2-yl]-2-(N-hydroxycarbamimidoyl)pyridine-4-carboxamide] had a cytotoxic concentration (CC50) at 144 h of over 10 µM. Also, the IC50 came out at 6.25 µM with HBeAg and 8.25 µM with HBsAg.

In the case of `N=C(N)c1cc(C(=O)NC2CC3(C2)CC(c2nc4cc(Cl)ccc4o2)C3)ccn1` (stereo not drawn) [Example 96, 2-Carbamimidoyl-N-[6-(5-chloro-1,3-benzoxazol-2-yl)spiro[3.3]heptan-2-yl]pyridine-4-carboxamide], the CC50 at 144 h in data set [1] was over 10 µM. The figures for the IC50 in the data set with HBeAg and with HBsAg were 5.65 µM and 7.6 µM, respectively.

Consider `CNc1cc(C(=O)NC2CC3(C2)CC(c2nc4cc(Cl)ccc4o2)C3)ccn1` (stereo not drawn) [Example 97, N-[6-(5-chloro-1,3-benzoxazol-2-yl)spiro[3.3]heptan-2-yl]-2-(methylamino)pyridine-4-carboxamide], for which, in data set [1], the CC50 at 144 h was over 10 µM. Further, the IC50 with HBeAg is 5.97 µM; in the data set with HBsAg it was 7.05 µM.

For `O=C(NC1CC2(C1)CC(c1nc3cc(Cl)ccc3o1)C2)c1ccnc(S(=O)(=O)C2CNC2)c1` (stereo not drawn) [Example 98, 2-(Azetidin-3-ylsulfonyl)-N-[6-(5-chloro-1,3-benzoxazol-2-yl)spiro[3.3]heptan-2-yl]pyridine-4-carboxamide], the CC50 at 144 h in data set [1] was over 10 µM. The values for the IC50 with HBeAg and in the data set on HBsAg were 3.08 µM and 3.59 µM, respectively.

`CC(=O)NS(=O)(=O)c1cc(C(=O)NC2CC3(C2)CC(c2nc4cc(Cl)ccc4o2)C3)ccn1` (stereo not drawn) [Example 99, 2-(Acetylsulfamoyl)-N-[6-(5-chloro-1,3-benzoxazol-2-yl)spiro[3.3]heptan-2-yl]pyridine-4-carboxamide] came in with a CC50 at 144 h in data set [1] of over 10 µM. Also, the figures for the IC50 in the data set on HBeAg and in the data set on HBsAg were 1.33 µM and 2.1 µM, respectively.

In data set [1], `O=C(NC1CC2(C1)CC(c1nc3cc(Cl)ccc3o1)C2)c1ccnc(S(=O)(=O)CC2CC2)c1` (stereo not drawn) [Example 100, N-[6-(5-chloro-1,3-benzoxazol-2-yl)spiro[3.3]heptan-2-yl]-2-(cyclopropylmethylsulfonyl)pyridine-4-carboxamide] came in with a CC50 at 144 h of over 10 µM. Further, the IC50 in the data set on HBeAg was 0.44 µM; with HBsAg, 0.59 µM.

`NC(=O)c1cc(C(=O)NC2CC3(C2)CC(c2nc4cc(Cl)ccc4o2)C3)ccn1` (stereo not drawn) [Example 101, N4-[6-(5-chloro-1,3-benzoxazol-2-yl)spiro[3.3]heptan-2-yl]pyridine-2,4-dicarboxamide] gave a CC50 at 144 h in data set [1] of over 100 µM. Besides, the IC50 in the data set on HBeAg is 0.22 µM; in the data set with HBsAg, 0.32 µM.

For `CNC(=O)c1cc(C(=O)NC2CC3(C2)CC(c2nc4cc(Cl)ccc4o2)C3)ccn1` (stereo not drawn) [Example 102, N4-[6-(5-chloro-1,3-benzoxazol-2-yl)spiro[3.3]heptan-2-yl]-N2-methyl-pyridine-2,4-dicarboxamide], the half-maximal cytotoxic concentration (CC50) at 144 h in data set [1] is over 10 µM. The IC50 in the data set on HBeAg turned out to be 2.28 µM; with HBsAg, 2.69 µM.

In turn, `CN(C)C(=O)c1cc(C(=O)NC2CC3(C2)CC(c2nc4cc(Cl)ccc4o2)C3)ccn1` (stereo not drawn) [Example 103, N4-[6-(5-chloro-1,3-benzoxazol-2-yl)spiro[3.3]heptan-2-yl]-N2,N2-dimethyl-pyridine-2,4-dicarboxamide] had a CC50 at 144 h in data set [1] of over 10 µM. Besides, the results for the IC50 in the data set with HBeAg and in the data set with HBsAg were 4.02 µM and 5.63 µM, respectively.
